Experimental data: PubChem BioAssay AID1963839 (Molecular Pharmacology Branch, DTP, NCI, 2024)

Test system: 817829-284-R-J1-PDC complex spheroid viability
Test: Anticancer human tumor 817829-284-R-J1-PDC patient-derived colon adenocarcinoma cell line growth inhibition [POLQ]
Conditions: for IC50: curve of first compound; for viability, T/C: stronger effect = lower value
Protocol: Multicellular complex tumor spheroid response to Polymerase (POL) inhibitors (novobiocin, ART-558, RP6685) in combination with a variety of drugs and investigational agents in selected tumor cell lines
The POL inhibitors (novobiocin, ART-558, and RP6685) were evaluated both individually and in combination with standard of care and investigational anticancer small molecules within a complex spheroid model of solid tumors. . Complex spheroids include a stromal component modeled by human endothelial cells (HUVEC) and fibroblasts modeled by human mesenchymal stem cells (MSCs). The concentration ranges selected for each drug and investigational agent were based upon clinically achievable concentrations if the clinical Cmax of the agent was known.
Compounds. The drugs and investigational agents: novobiocin (NSC847541), ART-558 (NSC835418), RP-6685 (NSC848927), peposertib (NSC802822), ceralasertib (NSC780249), elimusertib (NSC800525), camonsertib (NSC841442), AZD-1390 (NSC803789), olaparib (NSC753686), talazoparib (NSC767125), rucaparib (NSC756644), sotorasib (NSC818433), MRTX-1133 (NSC836407), SN-38 (NSC673596), topotecan (NSC609699), epotoside (NSC141540), doxorubicin (NSC123127), gemcitabine (NSC613327), 5-fluorouracil (NSC19893), paclitaxel (NSC125973), vemurafenib (NSC761431), MSA-2 (NSC828583), SN-011 (NSC837082), adavosertib (NSC754352), prexasertib (NSC758257), carboplatin (NSC241240) and oxaliplatin (NSC266046), were obtained from the National Cancer Institute (NCI) Developmental Therapeutics Program Chemical Repository (21). The FDA-approved anticancer drug set is available from the Developmental Therapeutics Program at https://dtp.cancer.gov/organization/dscb/obtaining/. […] The stock solutions were prepared in dimethyl sulfoxide (DMSO, Sigma-Aldrich, St. Louis, MO, cat. D2650), except for the platinum compounds which were prepared in saline (Quality Biological, Gaithersburg, MD, cat. 114-055-101), at 800-fold the tested concentration and stored at -70 degrees C prior to their use. All drugs and investigational agents were tested over a range starting from a high concentration at or near the clinical Cmax and decreasing in half-log increments. If the clinical Cmax for an agent had not been determined, the highest concentration tested was 10 microM, except for SN-38, which was tested at a high concentration of 1 microM.
Cell Culture. All cells were maintained in an incubator at 37 degrees C and 5% CO2 with 95% humidity. The PDC lines were cultured according to standard operating procedures established by the NCI PDMR (https://pdmr.cancer.gov). Table 3 of the manuscript, lists the cell lines along with the number of the three cell types plated to form the mct-spheroids and media for tumor cell growth. After thawing, all PDC lines, except 997537-175-T-J1-PDC and 415267-285-R-J2-PDC, were cultured in Matrigel-coated flasks prepared with a working solution of 1X Ham's F-12 nutrient mix, without supplementation (Thermo Fisher Scientific, cat. 11765054), 100 U/mL penicillin-streptomycin (Thermo Fisher Scientific, cat. 15140122), and 2.5% Matrigel (Corning Inc., Corning, NY, cat. 354248) for the first three passages. The two PDC lines 997537-175-T-J1-PDC and 415267-285-R-J2-PDC were cultured on uncoated flasks. The 857933-349-R-J2-PDC line was cultured in 6C/Colon 1B media containing advanced DMEM/F-12 (Thermo Fisher Scientific, cat. 12634028), 10 mM HEPES (Thermo Fisher Scientific, cat. 15630080), 1X GlutaMAX supplement (Thermo Fisher Scientific, cat. 35050061), 0.1 mg/mL primocin (InvivoGen, San Diego, CA, cat. ant-pm-2), 10% defined fetal bovine serum, heat inactivated (HyClone Laboratories Inc., Logan, UT, cat. SH30070.03HI), 50% L-WRN conditioned media (ATCC, cat. CRL-3276), 1.25 mM N-Acetyl-L-cysteine (Sigma-Aldrich, cat. A9165), 10 mM nicotinamide (Sigma-Aldrich, cat. N0636), 1X B-27 supplement (Thermo Fisher Scientific, cat. 17504044), 1X N-2 supplement (Thermo Fisher Scientific, cat. […]
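Further: spheroids exposed to compounds for 7 days.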
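Wherever viability, T/C is given: 100% = DMSO vehicle-treated spheroids.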

Work on `C=CC(=O)N1CCN(c2nc(=O)n(-c3c(C)ccnc3C(C)C)c3nc(-c4c(O)cccc4F)c(F)cc23)C(C)C1` (configuration not stated) + COC1C(OC(N)=O)C(O)C(Oc2ccc3c(O)c(NC(=O)c4ccc(O)c(CC=C(C)C)c4)c(=O)oc3c2C)OC1(C)C yielded an IC50 (second compound 0.0316 µM) of over 10 µM, an IC50 (second compound 0.1 µM) of over 10 µM and an IC50 (second compound 0.316 µM) of over 10 µM. The IC50 (second compound 1 µM) was over 10 µM, the IC50 (second compound 3.16 µM) was over 10 µM and the IC50 (second compound 10 µM) was over 10 µM. It also gave a viability, T/C (second compound 0.0316 µM, first compound 0.0316 µM) of 87.6%, a viability, T/C (second compound 0.0316 µM, first compound 0.1 µM) of 125% and a viability, T/C (second compound 0.0316 µM, first compound 0.316 µM) of 89.3%. The viability, T/C (second compound 0.0316 µM, first compound 1 µM) was 99.9%, the viability, T/C (second compound 0.0316 µM, first compound 3.16 µM) was 121% and the viability, T/C (second compound 0.0316 µM, first compound 10 µM) was 67.3%. For the same compound, the viability, T/C (second compound 0.1 µM, first compound 0.0316 µM) was 124%, the viability, T/C (second compound 0.1 µM, first compound 0.1 µM) was 100% and the viability, T/C (second compound 0.1 µM, first compound 0.316 µM) was 133%. The viability, T/C (second compound 0.1 µM, first compound 1 µM) was 83.3%, the viability, T/C (second compound 0.1 µM, first compound 3.16 µM) was 118% and the viability, T/C (second compound 0.1 µM, first compound 10 µM) was 76.2%. It also gave a viability, T/C (second compound 0.316 µM, first compound 0.0316 µM) of 115%, a viability, T/C (second compound 0.316 µM, first compound 0.1 µM) of 127% and a viability, T/C (second compound 0.316 µM, first compound 0.316 µM) of 104%. The viability, T/C (second compound 0.316 µM, first compound 1 µM) was 97.4%, the viability, T/C (second compound 0.316 µM, first compound 3.16 µM) was 95.7% and the viability, T/C (second compound 0.316 µM, first compound 10 µM) was 59.6%. For the same compound, the viability, T/C (second compound 1 µM, first compound 0.0316 µM) was 132%, the viability, T/C (second compound 1 µM, first compound 0.1 µM) was 104% and the viability, T/C (second compound 1 µM, first compound 0.316 µM) was 77.8%. The viability, T/C (second compound 1 µM, first compound 1 µM) was 140%, the viability, T/C (second compound 1 µM, first compound 3.16 µM) was 89.3% and the viability, T/C (second compound 1 µM, first compound 10 µM) was 51.2%. For the same compound, the viability, T/C (second compound 3.16 µM, first compound 0.0316 µM) was 102%, the viability, T/C (second compound 3.16 µM, first compound 0.1 µM) was 108% and the viability, T/C (second compound 3.16 µM, first compound 0.316 µM) was 123%. It also gave a viability, T/C (second compound 3.16 µM, first compound 1 µM) of 97%, a viability, T/C (second compound 3.16 µM, first compound 3.16 µM) of 80.4% and a viability, T/C (second compound 3.16 µM, first compound 10 µM) of 72.2%. It also gave a viability, T/C (second compound 10 µM, first compound 0.0316 µM) of 78.8%, a viability, T/C (second compound 10 µM, first compound 0.1 µM) of 96.8% and a viability, T/C (second compound 10 µM, first compound 0.316 µM) of 80.7%. The viability, T/C (second compound 10 µM, first compound 1 µM) was 98.2%, the viability, T/C (second compound 10 µM, first compound 3.16 µM) was 107% and the viability, T/C (second compound 10 µM, first compound 10 µM) was 57.3%.
